What was measured:
Type in all cases: functional, cell-based
[1] = tested on: HCT-116; experiment: Antiproliferative activity against human HCT-116 cells assessed as reduction in cell viability measured after 72 hrs by MTT assay; conditions: HCT-116, 72 h
[2] = tested on: SK-BR-3; experiment: Antiproliferative activity against human SK-BR-3 cells assessed as reduction in cell viability measured after 72 hrs by MTT assay; conditions: SK-BR-3, 72 h
[3] = tested on: J82; experiment: Antiproliferative activity against human J82 cells assessed as reduction in cell viability measured after 72 hrs by MTT assay; conditions: J82, 72 h
[4] = tested on: HepG2; experiment: Antiproliferative activity against human HepG2 cells assessed as reduction in cell viability measured after 72 hrs by MTT assay; conditions: HepG2, 72 h

| SMILES | IC50 [1] | IC50 [2] | IC50 [3] | IC50 [4] |
| --- | --- | --- | --- | --- |
| COc1c(/C=C/[C@@](C)(O)CO)ccc2c1C(=O)OCc1cc(C)cc(O)c1O2 | 79.3 µM | > 100 µM | > 100 µM | 70.1 µM |
| C=C1COC(c2ccc3c(c2OC)C(=O)OCc2cc(C)cc(O)c2O3)C1O (racemic) | 45.6 µM | 29.1 µM | > 100 µM | 16.8 µM |
| COc1c([C@H]2OC[C@@](C)(O)[C@H]2O)ccc2c1C(=O)OCc1cc(C)cc(O)c1O2 | 47.1 µM | > 100 µM | > 100 µM | 80.1 µM |
| C=C1CO[C@@H](c2ccc3c(c2OC)C(=O)OCc2cc(C)cc(O)c2O3)[C@@H]1O | 20.7 µM | > 100 µM | > 100 µM | 21.6 µM |
| C=C1CO[C@H](c2ccc3c(c2OC)C(=O)OCc2cc(C)cc(O)c2O3)[C@H]1O | 57.1 µM | 86.5 µM | > 100 µM | 30.1 µM |
| C=C(C)[C@H](C)[C@H](O)c1ccc2c(c1OC)C(=O)OCc1cc(C)cc(O)c1O2 | 22.4 µM | 43.8 µM | 62.4 µM | 12.4 µM |
| COc1c([C@@H]2OC[C@@](C)(O)[C@H]2O)ccc2c1C(=O)OCc1cc(C)cc(O)c1O2 | 74.3 µM | 88.5 µM | > 100 µM | 99.7 µM |
